Measurements published in ChEMBL document CHEMBL1201862, “PubChem BioAssay data set” (2004).
Calls of active or inactive are those of the source.

What was measured:
[1] = Luminescence Cell-Based Dose Retest to Confirm Inhibitors of Cancer Stem Cells. [Related pubchem assays (depositor defined):AID2717, AID2721]; type: functional; conditions: Homo sapiens
[2] = cells; type: functional
[3] = THP-1 cell cytotoxicity, dose response, cytotoxicity control for non-replicating M. tuberculosis project (AID 489025); type: functional
[4] = viability of PTEN-deleted HCT116 cells – cell-based, HCT116 PTEN knockout, dose response (AID 1047); type: functional;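 also: HCT116 colon tumor cells with PTEN knocked out; cells exposed to compound for 60 hours before readout; potency for loss of cell viability measured by luminescence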
[5] = viability of HCT116 lacking mutant beta-catenin – cell-based, human colon tumor, dose response (AID 1045); type: functional;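 also: HCT116 colon tumor cells with beta catenin knocked out; cells exposed to compound for 60 hours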
[6] = intracellular Trypanosoma cruzi inhibitors in host cells – cell-based, plate reader, cherry-pick samples, set 3, dose response (AID 651818); type: functional;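 also: compounds incubated with infected cells for about four days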
[7] = target: T1, Rac GTPase-activating protein 1 (Homo sapiens, UniProt Q9H0H5); test: blockers of MgcRacGAP-driven Rac1 GTP hydrolysis – biochemical, ADP Hunter fluorescence, primary and confirmatory, confirmation (AID 624330); type: functional
T1 sequence (Q9H0H5 whole entry): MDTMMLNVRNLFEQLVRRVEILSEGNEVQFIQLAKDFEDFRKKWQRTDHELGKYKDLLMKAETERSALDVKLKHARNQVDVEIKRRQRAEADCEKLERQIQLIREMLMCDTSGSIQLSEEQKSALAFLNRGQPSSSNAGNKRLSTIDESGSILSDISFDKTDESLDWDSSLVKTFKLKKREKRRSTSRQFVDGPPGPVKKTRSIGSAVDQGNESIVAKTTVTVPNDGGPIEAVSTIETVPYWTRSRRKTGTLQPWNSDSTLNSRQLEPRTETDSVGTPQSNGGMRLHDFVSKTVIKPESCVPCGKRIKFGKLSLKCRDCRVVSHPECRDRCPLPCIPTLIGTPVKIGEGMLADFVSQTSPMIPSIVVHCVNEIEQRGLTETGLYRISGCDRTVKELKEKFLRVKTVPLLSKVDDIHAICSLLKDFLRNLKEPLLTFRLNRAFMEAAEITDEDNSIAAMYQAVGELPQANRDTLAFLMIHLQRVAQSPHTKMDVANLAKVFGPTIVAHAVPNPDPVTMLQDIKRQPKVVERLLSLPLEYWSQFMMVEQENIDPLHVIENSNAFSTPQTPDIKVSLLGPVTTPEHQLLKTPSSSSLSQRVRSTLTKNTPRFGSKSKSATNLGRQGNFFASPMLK

[8] = target: T2, Sentrin-specific protease 7 (Homo sapiens, UniProt Q9BQF6); type: functional;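 also: Luminescence-based dose-response confirmation of ultra-high-throughput screening hits, measuring inhibition of SENP7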
T2 sequence (Q9BQF6 whole entry): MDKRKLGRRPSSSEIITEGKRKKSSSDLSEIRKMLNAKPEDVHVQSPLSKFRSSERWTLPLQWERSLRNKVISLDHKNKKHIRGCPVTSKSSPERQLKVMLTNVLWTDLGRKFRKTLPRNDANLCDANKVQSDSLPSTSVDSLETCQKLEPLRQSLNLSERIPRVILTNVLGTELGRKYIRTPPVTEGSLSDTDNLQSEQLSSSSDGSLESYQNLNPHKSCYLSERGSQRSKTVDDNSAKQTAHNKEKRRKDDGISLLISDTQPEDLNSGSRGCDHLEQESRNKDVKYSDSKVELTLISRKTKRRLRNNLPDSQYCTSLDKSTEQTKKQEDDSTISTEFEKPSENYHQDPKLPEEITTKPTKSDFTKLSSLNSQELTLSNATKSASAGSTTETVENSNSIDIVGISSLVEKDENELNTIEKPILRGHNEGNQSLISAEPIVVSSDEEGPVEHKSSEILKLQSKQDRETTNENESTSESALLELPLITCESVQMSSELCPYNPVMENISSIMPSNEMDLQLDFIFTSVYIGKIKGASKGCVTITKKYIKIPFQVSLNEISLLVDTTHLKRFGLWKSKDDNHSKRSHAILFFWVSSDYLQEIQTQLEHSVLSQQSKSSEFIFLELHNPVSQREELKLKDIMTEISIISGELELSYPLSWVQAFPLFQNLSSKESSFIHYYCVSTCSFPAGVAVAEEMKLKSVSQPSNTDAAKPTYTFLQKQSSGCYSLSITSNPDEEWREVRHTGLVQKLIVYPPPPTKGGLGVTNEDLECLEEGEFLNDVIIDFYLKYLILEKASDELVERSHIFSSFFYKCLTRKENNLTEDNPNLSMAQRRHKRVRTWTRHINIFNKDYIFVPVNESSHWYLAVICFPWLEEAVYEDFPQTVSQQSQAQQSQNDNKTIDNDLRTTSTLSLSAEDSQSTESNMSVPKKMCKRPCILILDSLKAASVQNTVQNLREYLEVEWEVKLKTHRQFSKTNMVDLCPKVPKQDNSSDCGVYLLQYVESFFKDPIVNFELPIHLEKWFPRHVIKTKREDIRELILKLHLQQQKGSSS

[9] = target: T3, Caspase-3 (Homo sapiens, UniProt P42574); type: functional;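 also: Dose-response selectivity test against caspase-3 for candidate inhibitors of sentrin-specific proteases (SENPs)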
T3 sequence (P42574 whole entry): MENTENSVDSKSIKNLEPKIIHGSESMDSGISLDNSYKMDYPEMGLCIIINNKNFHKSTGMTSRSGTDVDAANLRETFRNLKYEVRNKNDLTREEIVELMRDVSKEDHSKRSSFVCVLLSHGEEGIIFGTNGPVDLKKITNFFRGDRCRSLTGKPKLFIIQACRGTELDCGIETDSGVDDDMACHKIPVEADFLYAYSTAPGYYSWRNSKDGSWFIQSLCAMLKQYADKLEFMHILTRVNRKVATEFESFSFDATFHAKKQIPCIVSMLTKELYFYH

[10] = target: T4, Sentrin-specific protease 6 (Homo sapiens, UniProt Q9GZR1); type: functional;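 also: Luminescence-based dose-response confirmatory assay of SENP6 inhibition, following up an ultra-high-throughput screen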
T4 sequence (Q9GZR1 whole entry): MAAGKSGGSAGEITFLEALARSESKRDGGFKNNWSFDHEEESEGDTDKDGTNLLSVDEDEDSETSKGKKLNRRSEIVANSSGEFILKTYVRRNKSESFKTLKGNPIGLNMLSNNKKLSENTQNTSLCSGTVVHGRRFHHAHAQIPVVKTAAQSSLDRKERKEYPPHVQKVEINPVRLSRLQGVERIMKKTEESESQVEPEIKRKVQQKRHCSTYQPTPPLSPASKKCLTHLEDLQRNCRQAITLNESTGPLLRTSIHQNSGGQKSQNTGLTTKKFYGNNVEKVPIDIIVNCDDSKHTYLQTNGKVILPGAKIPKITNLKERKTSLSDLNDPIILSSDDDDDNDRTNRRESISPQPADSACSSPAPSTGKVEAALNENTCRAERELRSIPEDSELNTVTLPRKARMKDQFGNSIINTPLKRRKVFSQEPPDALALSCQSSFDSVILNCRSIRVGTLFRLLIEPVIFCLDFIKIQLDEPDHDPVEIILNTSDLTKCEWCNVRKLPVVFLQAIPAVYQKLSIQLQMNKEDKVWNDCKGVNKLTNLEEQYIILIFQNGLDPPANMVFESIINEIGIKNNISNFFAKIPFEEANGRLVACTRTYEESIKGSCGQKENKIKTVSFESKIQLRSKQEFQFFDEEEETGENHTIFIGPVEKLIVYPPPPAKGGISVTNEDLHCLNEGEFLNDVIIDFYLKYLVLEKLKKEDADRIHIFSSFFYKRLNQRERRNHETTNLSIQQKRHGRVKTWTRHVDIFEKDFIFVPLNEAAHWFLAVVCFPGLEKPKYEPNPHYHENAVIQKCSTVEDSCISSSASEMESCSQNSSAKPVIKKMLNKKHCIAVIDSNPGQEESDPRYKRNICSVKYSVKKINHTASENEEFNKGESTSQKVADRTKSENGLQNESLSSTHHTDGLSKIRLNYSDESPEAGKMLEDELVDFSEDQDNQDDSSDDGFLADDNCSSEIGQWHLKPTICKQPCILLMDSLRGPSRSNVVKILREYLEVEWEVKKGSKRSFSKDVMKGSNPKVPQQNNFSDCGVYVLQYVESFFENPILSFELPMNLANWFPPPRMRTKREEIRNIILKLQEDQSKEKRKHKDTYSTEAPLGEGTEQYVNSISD

[11] = target: T5, Sentrin-specific protease 8 (Homo sapiens, UniProt Q96LD8); type: functional;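 also: luminescence read-out of SENP8 inhibition, dose-response confirmation following an ultra-high-throughput screen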
T5 sequence (Q96LD8 whole entry): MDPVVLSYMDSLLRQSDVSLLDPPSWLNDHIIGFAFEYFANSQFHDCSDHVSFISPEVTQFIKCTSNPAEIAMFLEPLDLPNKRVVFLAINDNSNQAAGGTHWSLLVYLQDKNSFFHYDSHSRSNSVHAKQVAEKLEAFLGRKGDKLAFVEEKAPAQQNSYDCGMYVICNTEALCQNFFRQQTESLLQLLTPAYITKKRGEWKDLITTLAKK

[12] = target: Nonstructural protein 1 (Influenza A virus, UniProt Q194T2); type: functional, Influenza A virus (A/California/07/2009(H1N1))
[13] = HIV-1 AD8 envelope cell-cell fusion blockers – cherry-pick, dose response (AID 652062); type: functional, cell-based;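 also: luciferase signal from cell-cell fusion driven by HIV-1 clade B AD8 Env; potency is for inhibitors of fusion seen as a drop in luminescence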
[14] = blockers of HIV-1 envelope-mediated cell-cell fusion – cherry-pick, dose response (AID 652057); type: functional, cell-based
[15] = blockers of HIV-1 ZM109 envelope-driven cell-cell fusion – HeLa effector, CEM target cells, luciferase, cherry-pick, dose response (AID 652058); type: functional, cell-based;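 also: luciferase signal from HIV-1 Env mediated cell-cell fusion of effector and target cells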
[16] = target: Voltage-dependent T-type calcium channel subunit alpha-1H (Homo sapiens, UniProt O95180); type: functional;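 also: channel activity triggered by adding a high calcium stimulation buffer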
[17] = target: T6, Ubiquitin-conjugating enzyme E2 N (Homo sapiens, UniProt P61088); type: functional;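 also: Dose-response confirmation in a TR-FRET assay detecting UBC13-driven polyubiquitin chain formation, inhibition measured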
T6 sequence (P61088 whole entry): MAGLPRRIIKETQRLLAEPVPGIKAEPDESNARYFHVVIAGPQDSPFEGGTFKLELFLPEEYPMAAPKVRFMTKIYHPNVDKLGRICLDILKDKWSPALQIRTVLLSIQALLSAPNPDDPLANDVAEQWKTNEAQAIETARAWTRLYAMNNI

Sequence of Voltage-dependent T-type calcium channel subunit alpha-1H (O95180 whole entry): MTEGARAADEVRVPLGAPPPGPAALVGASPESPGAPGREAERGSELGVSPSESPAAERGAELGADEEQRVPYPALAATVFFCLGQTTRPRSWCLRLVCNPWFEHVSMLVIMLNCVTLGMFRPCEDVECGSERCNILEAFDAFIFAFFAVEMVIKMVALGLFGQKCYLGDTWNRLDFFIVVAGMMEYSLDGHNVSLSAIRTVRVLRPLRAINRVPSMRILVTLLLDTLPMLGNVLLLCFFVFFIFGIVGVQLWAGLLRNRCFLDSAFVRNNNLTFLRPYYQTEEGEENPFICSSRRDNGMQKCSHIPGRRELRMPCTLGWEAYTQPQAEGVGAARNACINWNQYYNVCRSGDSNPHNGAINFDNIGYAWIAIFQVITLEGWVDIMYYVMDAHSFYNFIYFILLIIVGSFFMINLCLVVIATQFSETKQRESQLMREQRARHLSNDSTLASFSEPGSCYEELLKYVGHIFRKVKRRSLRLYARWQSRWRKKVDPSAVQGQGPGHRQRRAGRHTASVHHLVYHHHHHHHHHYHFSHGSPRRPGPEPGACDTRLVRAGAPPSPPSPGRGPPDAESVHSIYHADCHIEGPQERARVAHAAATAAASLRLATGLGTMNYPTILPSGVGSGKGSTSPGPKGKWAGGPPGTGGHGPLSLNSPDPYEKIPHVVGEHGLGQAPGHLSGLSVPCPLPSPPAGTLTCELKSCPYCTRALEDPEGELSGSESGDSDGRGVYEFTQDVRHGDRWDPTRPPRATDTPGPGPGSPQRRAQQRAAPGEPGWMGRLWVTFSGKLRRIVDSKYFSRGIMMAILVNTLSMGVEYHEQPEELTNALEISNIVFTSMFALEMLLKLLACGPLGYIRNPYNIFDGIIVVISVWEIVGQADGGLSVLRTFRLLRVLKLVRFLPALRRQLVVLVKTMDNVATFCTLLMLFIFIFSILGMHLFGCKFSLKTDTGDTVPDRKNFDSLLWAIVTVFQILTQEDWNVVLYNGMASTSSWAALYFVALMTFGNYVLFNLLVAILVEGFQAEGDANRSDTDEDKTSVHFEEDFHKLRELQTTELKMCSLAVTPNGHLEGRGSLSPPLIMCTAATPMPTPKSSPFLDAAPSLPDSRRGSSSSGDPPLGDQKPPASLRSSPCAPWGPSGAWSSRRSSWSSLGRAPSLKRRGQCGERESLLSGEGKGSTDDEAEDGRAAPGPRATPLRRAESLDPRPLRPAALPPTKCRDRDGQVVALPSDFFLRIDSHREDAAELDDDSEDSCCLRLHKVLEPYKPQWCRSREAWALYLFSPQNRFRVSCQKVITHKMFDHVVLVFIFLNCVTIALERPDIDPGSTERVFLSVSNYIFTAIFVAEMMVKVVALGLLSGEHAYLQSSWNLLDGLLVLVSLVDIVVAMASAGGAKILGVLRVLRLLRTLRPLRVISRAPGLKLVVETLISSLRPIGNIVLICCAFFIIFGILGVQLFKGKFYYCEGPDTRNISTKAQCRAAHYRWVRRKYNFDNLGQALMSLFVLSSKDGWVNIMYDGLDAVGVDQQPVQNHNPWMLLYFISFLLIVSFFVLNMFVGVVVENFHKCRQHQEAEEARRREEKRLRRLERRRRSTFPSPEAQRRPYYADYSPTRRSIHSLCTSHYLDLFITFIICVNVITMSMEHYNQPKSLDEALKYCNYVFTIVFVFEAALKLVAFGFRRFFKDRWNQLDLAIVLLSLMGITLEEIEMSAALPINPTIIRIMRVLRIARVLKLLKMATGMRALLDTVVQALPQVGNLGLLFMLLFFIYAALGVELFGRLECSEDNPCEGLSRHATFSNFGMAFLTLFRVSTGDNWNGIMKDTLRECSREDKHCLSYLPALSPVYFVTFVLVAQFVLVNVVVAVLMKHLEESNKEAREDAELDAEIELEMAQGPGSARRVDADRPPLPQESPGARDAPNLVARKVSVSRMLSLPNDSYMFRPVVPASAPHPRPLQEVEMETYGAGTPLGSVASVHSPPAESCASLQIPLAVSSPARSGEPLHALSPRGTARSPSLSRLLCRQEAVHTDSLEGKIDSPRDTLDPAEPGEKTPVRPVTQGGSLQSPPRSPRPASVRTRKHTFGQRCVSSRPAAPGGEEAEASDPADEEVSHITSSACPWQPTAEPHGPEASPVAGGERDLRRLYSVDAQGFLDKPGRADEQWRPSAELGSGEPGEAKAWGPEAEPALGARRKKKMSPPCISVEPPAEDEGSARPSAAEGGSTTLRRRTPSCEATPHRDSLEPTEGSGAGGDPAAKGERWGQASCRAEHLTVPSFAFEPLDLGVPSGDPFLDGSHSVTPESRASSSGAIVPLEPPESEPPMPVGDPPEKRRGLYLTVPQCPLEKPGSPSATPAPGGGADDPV
Sequence of Nonstructural protein 1 (Q194T2 whole entry, the tested form may be a part): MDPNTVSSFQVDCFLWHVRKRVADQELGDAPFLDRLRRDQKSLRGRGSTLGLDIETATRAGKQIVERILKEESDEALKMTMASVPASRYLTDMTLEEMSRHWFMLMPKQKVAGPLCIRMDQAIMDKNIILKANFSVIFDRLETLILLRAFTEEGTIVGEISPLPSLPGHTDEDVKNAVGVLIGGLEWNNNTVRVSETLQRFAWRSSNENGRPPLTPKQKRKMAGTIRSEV

Compound | AC50 [6] | IC50 [8] | IC50 [9] | IC50 [10] | IC50 [11] | other results
CCOC(=O)c1c(NC(=O)C2COc3ccccc3O2)sc2c1CC(C)(C)NC2(C)C (stereo not drawn) |  |  |  |  |  | AC50 [1]: 8.55 µM (active); IC50 [2]: 36.2 µM (active); CC50 [3]: 25.3 µM (active); EC50 [4]: 10.6 µM (active); EC50 [5]: 10.3 µM (active)
C[C@H]1CN([C@@H](C)CO)C(=O)c2cccc(NC(=O)c3ccc(-c4nccs4)cc3)c2O[C@H]1CN(C)Cc1ccc(C(=O)Nc2ccccc2N)cc1 | 1.49 µM (active) |  |  |  |  | 
C[C@@H]1CN([C@H](C)CO)C(=O)Cc2cc(NS(=O)(=O)c3ccccc3)ccc2O[C@@H]1CN(C)Cc1ccc(Cl)c(Cl)c1 | 3.52 µM (active) |  |  |  |  | 
C[C@@H]1CN([C@@H](C)CO)C(=O)c2cccc(NC(=O)c3nc4ccccc4s3)c2O[C@H]1CN(C)Cc1ccc2c(c1)OCO2 | 1.78 µM (active) |  |  |  |  | 
C[C@H](CO)N1C[C@H](C)[C@H](CN(C)Cc2ccc(Cl)c(Cl)c2)Oc2c(NC(=O)c3ccc(-c4nccs4)cc3)cccc2C1=O | 4.5 µM (active) |  |  |  |  | 
CN(c1ccccc1)c1ccc(/C=N/N2CCOCC2)cc1 |  | 8.89 µM (active) | 18.8 µM (active) | 27.3 µM (active) | 39.5 µM (active) | IC50 [7]: 37.2 µM (active); IC50 [12]: > 100 µM (active)
COc1ccc(NC(=O)Nc2ccc3c(c2)C(=O)N([C@H](C)CO)C[C@H](C)[C@@H](CN(C)CC2CCCCC2)OCCCC[C@@H](C)O3)cc1 | 3.41 µM (active) |  |  |  |  | 
O=C(NNS(=O)(=O)c1ccc(F)cc1F)C1Cc2c(ccc3ccccc23)O1 (stereo not drawn) |  |  |  |  |  | AC50 [13]: 24.2 µM (active); AC50 [14]: 8.04 µM (active); AC50 [15]: 37.5 µM (active)
CCc1ccc(-c2csc(NC(=O)C3=COCCO3)n2)cc1 |  | 6.81 µM (active) | 38.6 µM (active) | 27 µM (active) | 48.5 µM (active) | 
Cc1cccc(-c2noc(CN(C(=O)c3ccc(Br)o3)C(C)C)n2)c1 |  |  |  |  |  | EC50 [16]: 11.1 µM (active)
Clc1ccc(OCc2nc(-c3ccncc3)no2)c(Cl)c1 |  | 9.12 µM (active) | 38.8 µM (active) | 28.8 µM (active) | 36.6 µM (active) | 
O=C(CCCCCN1C(=O)c2cccc3cccc(c23)C1=O)NCCO |  |  |  |  |  | IC50 [17]: > 20 µM (inactive)
O=[N+]([O-])c1nn(-c2ccc3c(c2)OCCO3)[n+]([O-])c1NCc1ccccc1Cl |  | 3.36 µM (active) | > 100 µM (inactive) | > 100 µM (inactive) | > 100 µM (inactive) | 
Cc1cccc(C(=O)n2c(=S)nc3cc(C)ccn32)c1 |  | 11 µM (active) | 87.3 µM (active) | 86.4 µM (active) | > 100 µM (inactive) | 
Cc1cc(NC(=O)C(C)Oc2ccc(Cl)cc2Cl)n(-c2ccccc2)n1 (stereo not drawn) |  |  |  |  |  | EC50 [16]: 8.91 µM (active)
